Columns and labels:
[1] = molecular target: Human immunodeficiency virus type 1 reverse transcriptase (Human immunodeficiency virus 1, UniProt Q72547, K103N); experiment: Inhibitory activity against K103N mutant of HIV-1 reverse transcriptase
[2] = test system: MT4; experiment: Antiviral activity in cell culture tested ex vivo in MT-4 cells using the IIIb strain of HIV-1; assay type: functional; details: Homo sapiens, read-out: CIC95
[3] = molecular target: Human immunodeficiency virus type 1 reverse transcriptase (Human immunodeficiency virus 1, UniProt Q72547, K103N/Y181C); experiment: Inhibitory activity against K103N/Y181C double mutant of HIV-1 reverse transcriptase

Row | SMILES | IC50 [1] | IC95 [2] | IC50 [3]
1 | O=S(=O)(c1ccccc1)c1c(C2=NCCS2)[nH]c2ccc(Cl)cc12 | 1250 nM |  | 
2 | Nc1nc(-c2[nH]c3ccc(Cl)cc3c2S(=O)(=O)c2ccccc2)cs1 |  | > 200 nM | 
3 | Cc1nc(-c2[nH]c3ccc(Cl)cc3c2S(=O)(=O)c2ccccc2)[nH]c1C | 22 nM | 12 nM | > 30000 nM
4 | CCc1nc(-c2[nH]c3ccc(Cl)cc3c2S(=O)(=O)c2ccccc2)[nH]c1CC |  | 50 nM | 
5 | Cc1cnc(-c2[nH]c3ccc(Cl)cc3c2S(=O)(=O)c2ccccc2)[nH]1 |  | 12 nM | 
6 | CCCc1[nH]c(-c2[nH]c3ccc(Cl)cc3c2S(=O)(=O)c2ccccc2)nc1C |  | 50 nM | 
7 | O=S(=O)(c1ccccc1)c1c(-c2nc3c([nH]2)CCCC3)[nH]c2ccc(Cl)cc12 |  | 50 nM | 
8 | O=S(=O)(c1ccccc1)c1c(-c2ncc[nH]2)[nH]c2ccc(Cl)cc12 |  | 2 nM | 

From ChEMBL document CHEMBL1151605, “2-Heterocyclic indole-3-sulfones as inhibitors of HIV-1 reverse transcriptase” (Bioorg Med Chem Lett, 1995)
